Results on two compounds are retold here after patent EP3906926A1, “PROLINE HYDROXYLASE INHIBITORS FOR USE IN THE SKELETAL MUSCLE REGENERATION” (Policlinico San Donato S.p.A.- Istituto di Ricovero e Cura …, priority 2020, dated 2021).

One assay concerns C57Bl/6N mice. As to the kind of experiment: Cardiotoxin-induced muscle regeneration in mice. It is filed as in vivo. The settings on record: single i.p. injection 10 mg/kg one day before CTX injury; 7 days after injury; laminin staining; vs saline.
The next assay concerns MYOR. As to the kind of experiment: qPCR of MYOR. The format is cell-based, murine. The following applies: IOX2 or FG-4592 treatment, vs controls. Here is the method: (§1) Total RNA was isolated using ReliaPrep™ RNA Miniprep Systems (Promega), and reverse transcribed to cDNA using the iScript cDNA synthesis kit (BioRad), according to the Manufacturer's instructions. Real-Time Quantitative PCR was performed on 10 ng of cDNA template, 0.2 µM primers, and GoTaq® qPCR Master Mix (Promega) in 20 µl final volume using a StepOnePlus® Real-Time PCR System (Applied Biosystem). […] RPL13 was used as the housekeeping gene. The amplification program consisted in an initial denaturation at 95°C for 3 minutes, followed by 40 cycles of 5 seconds each at 95°C and 30 seconds at 57°C; WNT7a was amplified at 53°C. Relative quantification of target genes was performed in triplicate and calculated by the equation 2^-ΔΔCt.
In general terms: In qPCR the cycle at which signal appears reflects the starting amount.

The next assay relates to Myogenin. Description: qPCR of Myogenin during differentiation. It is filed as cell-based, murine. The following applies: day 3 of differentiation, IOX2 or FG-4592 pre-treated myoblasts. As to the method:
as §1
as §1, with “ReliaPrepTM” for “ReliaPrep™”, “2-ΔΔCt.” for “2^-ΔΔCt.”

For the next assay, the system named is PHD2. As to the kind of experiment: qPCR of HIF-1α target gene PHD2. The following applies: IOX2 or FG-4592 treatment, vs untreated controls. The format is cell-based, murine. Here is the method: as §1
as §1, with “ReliaPrepTM” for “ReliaPrep™”, “2-ΔΔCt.” for “2^-ΔΔCt.”

Protocol for C57Bl/6N mice: Experiments on muscle regeneration were conducted on 8-10 weeks old male C57Bl/6N mice, matched for weight, and purchased from Charles River Laboratories (Calco, Italy).
Cardiotoxin (CTX, from Naja mossambica, Latoxan, Portes-les-Valence, France, http://www.latoxan.net/) was dissolved in sterile saline to a final concentration of 10 µM. Mice were anesthetized by isofluorane inhalation and hindlimbs were shaved and cleaned with alcohol. Tibialis anterior (TA) muscles were injected with 45 µl of CTX with a 30-gauge needle, with 15 micro-injections of 3 µl CTX each in the mid-belly of the muscle to induce a homogeneous damage. The TA muscles of the contralateral hindlimbs were injected with a saline solution.
DMSO, diluted at 2% in saline solution, was inoculated by i.p. injection to control mice. […] Mice were sacrificed seven days after cardiotoxin treatment.
Briefly, TA muscles were frozen in liquid nitrogen-cooled isopentane and mounted in Killik embedding medium (Bio-optica). Transverse muscle sections (7 µm) were cryosectioned from the midbelly of each muscle. Sections were stained with Hematoxylin (Bio-optica)/Eosin (Merck) to reveal general muscle architecture. […] Images were acquired using Axio Lab.A1 (Zeiss) and quantified with ImageJ v1.49o software.

Consider `Cc1nc(C(=O)NCC(=O)O)c(O)c2ccc(Oc3ccccc3)cc12` [FG-4592, Roxadustat], for which, in the assay with C57Bl/6N mice, the “enhancement of cross-sectional area (CSA) of regenerating myofibers” value is recorded as 25% and the “increase of minimal Feret diameter of regenerating myofibers” value came out at 8%. Moreover, the “MYOR mRNA level down-regulated” value in the assay on MYOR came to 2.6 fold. Moreover, in the assay on Myogenin, the “increase of Myogenin” value is 1.4 fold. Also, in the assay with PHD2, the “increase in the expression of PHD2” value came out at 4.8 fold.

As to `O=C(O)CNC(=O)c1c(O)c2ccccc2n(Cc2ccccc2)c1=O` [IOX2], in the assay with MYOR, the “MYOR mRNA level down-regulated” value is 2.2 fold. Also, in the assay with Myogenin, the “increase of Myogenin” value amounted to 2.0 fold. In addition, the “increase in the expression of PHD2” value with PHD2 was found to be 4.4 fold.
